Ends that are not written are not given here.
What was measured:
survivin mRNA = assay: Real-time qPCR of survivin mRNA in C2C12 cells; type: cell-based, mouse; conditions: for survivin mRNA induction compared to solvent control / survivin mRNA induction, in words: C2C12 cells in low serum media, 20 μM peptide, 6 h
Description: Total RNA was extracted from cells using TRIzol (Invitrogen). Synthesis of cDNA was performed with 1 μg of total RNA at 50° C. for 50 min using oligo(dT) primers and reverse transcriptase (Superscript III; Invitrogen). Briefly, quantification of cDNA was performed in the LightCycler (Roche, Mannheim, Germany) using the DNA Master SYBR Green I kit (Roche) with the following cycling conditions: initial denaturation at 95° C. for 10 min, followed by 40 cycles at 95° C. for 10 s, 60° C. for 10 s, and 72° C. for 10 s and a 5-min terminal incubation at 72° C. The data were calculated with AACt. The expression was then normalized against the expression of glyceraldehyde-3-phosphate dehydrogenase (GAPDH). The PCR primers were mouse Survivin sense, 5′-[…]-3′ (SEQ ID NO: 27), anti-sense, 5′-[…]-3′ (SEQ ID NO: 28) (accession number: NM_001012273.1; PCR product: 136 bp); mouse GAPDH sense, 5′-[…]-3′ (SEQ ID NO: 29), anti-sense, 5′-[…]-3′ (SEQ ID NO: 30) (NM_001289726.1; 149 bp). For analysis rabbit inflammatory gene expression, The PCR primers were rabbit TNF-αsense, 5′-[…]-3′ (SEQ ID NO: 31), anti-sense, 5′-[…]-3′ (SEQ ID NO: 32) (accession number: NM 001082263.1); rabbit IL-1βsense, 5′-[…]-3′(SEQ ID NO: 33), anti-sense, 5′-[…]-3′ (SEQ ID NO: 34) (NM 001082201.1); rabbit GAPDH sense, 5′-[…]-3′ (SEQ ID NO: 35), anti-sense, 5′-[…]-3′ (SEQ ID NO: 36) (accession number:NM 001082253.1). The cycle threshold (Ct) values of the PCR product and a GAPDH (Glyceraldehyde 3-phosphate dehydrogenase) control mRNA were used to calculate relative quantities of mRNA.
Similar to the approach in Example 1.2.1, the expression level of survivin mRNA in C2C12 cells was used as an indicator for the function of the 6-mer variants in Tables 3 to 5. Briefly, C2C12 cells in low serum media were treated with 20 μM the 6-mer variants for 6 h. […] The results also confirmed that alanine substation at the glutamic acid (E) residues would severely impair the 6-mer activity.

[1] = tested on: Sprague-Dawley rats, retinal ischemia/reperfusion (I/R) injury; assay: TUNEL staining of I/R-injured rat retina (20 h); type: in vivo; conditions: for Number of TUNEL-positive cells in retina: subconjunctival injection 1 mM 4 h before I/R, 20 hours after I/R injury, Vehicle + I/R 27.2 ± 2.7; for I/R-induced retinal cell apoptosis (TUNEL staining), in words: subconjunctival injection prior to I/R, 20 h reperfusion
Description: Experimental procedures were approved by the Mackay Memorial Hospital Review Board (Taiwan, R.O.C.). All surgeries were performed under aseptic conditions. Adult 10-week-old male Sprague-Dawley rats (initial body weight=312±11 g) were anesthetized by an intraperitoneal injection of xylazine (10 mg/kg). Peptide was dissolved in 0.85% normal saline to 1 mM and delivered by the subconjunctival injection of 100 μL peptide through a 31-Gneedle with a micro-syringe before the induction of I/R. Normal saline was as a vehicle control. Rat I/R was performed after peptide or vehicle injection for 4 h. Pupils were dilated with 0.5% tropicamide and 0.5% phenylephrine. Body temperature was maintained at 37° C. using a heating blanket After dilation of the pupil, the anterior chamber of the right eye was cannulated with a 27-gauge needle connected to a physiological saline reservoir. The intraocular pressure (IOP) was raised to 110 mmHg by keeping the reservoir at 150 cm above the eye, and retinal ischemia was confirmed by observing whitening of the iris and the loss of the red reflex of the retina. After 90 min of ischemia, the cannulating needle was withdrawn and the IOP was returned to normal pressure, resulting in recovery of the blood supply from the retinal artery and reperfusion injury induced. The reperfusion was evident by the return of the red reflex. Corneal analgesia was achieved using 1 or 2 drops of 0.4% oxybuprocaine hydrochloride, and Ofloxacin ophthalmic gel (0.3%) was applied topically to the eye before and after the procedure. Only the right eye was used in all experiments. A sham procedure was performed at left eye served as an intra-animal control.
After I/R for 20 h, rats (n=6 in each group) were euthanized by an overdose of pentobarbital. Enucleated eyeballs were fixed in 4% PFA for 24 h at 4° C. Fixed retinal tissues were embedded in paraffin. To identify apoptosis of retinal cells, 5 μm sections thick cut through the optic disc, de-paraffinized, rehydrated, incubatedwith 20 μg/mL proteinase K for 10 min, and immunofluorescence staining of apoptotic cells was performed using a terminal deoxynucleotidyl transferase(TdT)-mediated dUTP nick-end labeling (TUNEL)-based kit (Roche Molecular Biochemicals, Indianapolis, IN) according to the manufacturer's instructions. Nuclei were located by counterstaining with Hoechst 33258 for 7 min Sections were observed under an epifluorescence microscope (Zeiss Axioplan 2 imaging; Zeiss, Oberkochen, Germany) equipped with a charge-coupled device (CCD) camera (Zeiss AxioCam HRm, Zeiss) (×400, 6 fields/sample), and quantification was performed using Axiovert software (Zeiss AxioVision Release 4.8.2, Zeiss). Three sections per eye were averaged and the mean of six eyes was recorded as the representative value for each group.
In this example, the neuroprotective effect of the 6-mer variant peptides on neural retina cells and retinal capillary system was investigated using a rat model of I/R injury described in the “Material and Methods” section. Briefly, 6-mer variant peptide (1 mM, 120 μl) was injected into the subconjunctival space of Sprague-Dawley rats for 4 h before the induction of I/R. Then, I/R injury was induced in rat retinas by increasing the intraocular pressure (IOP) in the eye to 110 mmHg for 90 min, followed by 20 h of reperfusion. Subsequently, the level of retinal cell apoptosis was evaluated using TUNEL staining. In addition, the retinal morphology was analyzed with H&E staining 14 days after the I/R injury. Results are summarized in FIGS. 6 to 10, and Tables 6 to 9.

Compound | survivin mRNA induction compared to solvent control (survivin mRNA) | survivin mRNA induction, in words (survivin mRNA) | other results
NH2-Ser-Leu-Gly-Gly-Glu-Gln-COOH (SLGGEQ; not fully specified (N-terminus, C-terminus); printed as NH2-Ser-Leu-Gly-Gly-Glu-Gln-COOH) [6-mer Ag] | 1.5 fold |  | 
NH2-Ser-Ala-Gly-Ala-Glu-Gln-COOH (SAGAEQ; not fully specified (N-terminus, C-terminus); printed as NH2-Ser-Ala-Gly-Ala-Glu-Gln-COOH) [6-mer La] | 1.5 fold |  | 
O=[N+]([O-])c1ccc2c(c1)S(=O)(=O)C=C2 [STAT3 inhibitor V, reference compound] |  |  | survivin mRNA expression induced by the 6-mer dS in cells pretreated with STAT3 inhibitor (survivin mRNA; C2C12 cells, 2.6-fold without inhibitor): 1.3 fold
NH2-Ser-Leu-Gly-Ala-(D-Glu)-Gln-COOH (SLGAEQ; HELM PEPTIDE1{S.L.G.A.[dE].Q}$$$$V2.0; SMILES CC(C)C[C@H](NC(=O)[C@@H](N)CO)C(=O)NCC(=O)N[C@@H](C)C(=O)N[C@H](CCC(=O)O)C(=O)N[C@@H](CCC(N)=O)C(=O)O) [6-mer dE] |  | moderate induction on survivin mRNA level | 
NH2-Ser-Leu-Gly-Ile-Glu-Gln-COOH (SLGIEQ; not fully specified (N-terminus, C-terminus); printed as NH2-Ser-Leu-Gly-Ile-Glu-Gln-COOH) [6-mer Ai] |  | severely impaired the survivin mRNA induction | 
NH2-Ser-Leu-Ala-Ala-Glu-Gln-COOH (SLAAEQ; not fully specified (N-terminus, C-terminus); printed as NH2-Ser-Leu-Ala-Ala-Glu-Gln-COOH) [6-mer Ga] | 1.6 fold |  | 
NH2-Ser-Leu-Asn-Ala-Glu-Gln-COOH (SLNAEQ; not fully specified (N-terminus, C-terminus); printed as NH2-Ser-Leu-Asn-Ala-Glu-Gln-COOH) [6-mer Gn] | 1.5 fold |  | 
NH2-Ser-Leu-Gly-Ala-Glu-(D-Gln)-COOH (SLGAEQ; HELM PEPTIDE1{S.L.G.A.E.[dQ]}$$$$V2.0; SMILES CC(C)C[C@H](NC(=O)[C@@H](N)CO)C(=O)NCC(=O)N[C@@H](C)C(=O)N[C@@H](CCC(=O)O)C(=O)N[C@H](CCC(N)=O)C(=O)O) [6-mer dQ] |  | hamper the survivin gene induction activity significantly | 
NH2-Ser-Leu-Gly-Ala-Glu-Ala-COOH (SLGAEA; not fully specified (N-terminus, C-terminus); printed as NH2-Ser-Leu-Gly-Ala-Glu-Ala-COOH) [6-mer Qa] | 1.6 fold |  | 
NH2-Ser-Leu-Gly-Glu-Glu-Gln-COOH (SLGEEQ; not fully specified (N-terminus, C-terminus); printed as NH2-Ser-Leu-Gly-Glu-Glu-Gln-COOH) [6-mer Ae] | 1.5 fold |  | 
NH2-Ser-Leu-Gly-Ala-Asp-Gln-COOH (SLGADQ; not fully specified (N-terminus, C-terminus); printed as NH2-Ser-Leu-Gly-Ala-Asp-Gln-COOH) [6-mer Ed] |  | severely impaired the survivin mRNA induction | 
NH2-Ser-Ile-Gly-Ala-Glu-Gln-COOH (SIGAEQ; not fully specified (N-terminus, C-terminus); printed as NH2-Ser-Ile-Gly-Ala-Glu-Gln-COOH) [6-mer Li] | 2.1 fold |  | Number of TUNEL-positive cells in retina [1]: 9.8 ± 1.4 /200 μm; I/R-induced retinal cell apoptosis (TUNEL staining), in words [1]: reduced the retinal cell apoptosis induced by I/R
NH2-Ser-Leu-Gly-Ser-Glu-Gln-COOH (SLGSEQ; not fully specified (N-terminus, C-terminus); printed as NH2-Ser-Leu-Gly-Ser-Glu-Gln-COOH) [6-mer As] |  | severely impaired the survivin mRNA induction | 
NH2-Ser-Leu-Gly-Ala-Glu-Asn-COOH (SLGAEN; not fully specified (N-terminus, C-terminus); printed as NH2-Ser-Leu-Gly-Ala-Glu-Asn-COOH) [6-mer Qn] | 2.1 fold |  | Number of TUNEL-positive cells in retina [1]: 12.5 ± 0.89 /200 μm; I/R-induced retinal cell apoptosis (TUNEL staining), in words [1]: reduced the retinal cell apoptosis induced by I/R
NH2-Ser-(D-Leu)-Gly-Ala-Glu-Gln-COOH (SLGAEQ; HELM PEPTIDE1{S.[dL].G.A.E.Q}$$$$V2.0; SMILES CC(C)C[C@@H](NC(=O)[C@@H](N)CO)C(=O)NCC(=O)N[C@@H](C)C(=O)N[C@@H](CCC(=O)O)C(=O)N[C@@H](CCC(N)=O)C(=O)O) [6-mer dL] |  | hamper the survivin gene induction activity significantly | 

— patent publication US12221494B2, “Short synthetic peptides and their uses for treating retinal degenerative diseases and/or tissue injuries” (MacKay Memorial Hospital, priority 2019, dated 2025)
